Consider 17 molecules from patent publication US10167299B2, “1-(3-aminopropyl) substituted cyclic amine compounds, preparation method therefor, and pharmaceutical compositions and uses thereof” (SHANGHAI INSTITUTE OF MATERIA MEDICA, CHINESE ACADEMY OF …, priority 2013, dated 2019).

The assay has as its target CCR5 (Homo sapiens (Human), UniProt P51681). Kind of assay: Calcium flux inhibition experiment. Type of assay: cell-based. The settings on record: for calcium influx inhibition effect in words, versus positive control compounds: conclusion from Table 1. The source says:
Experiment apparatus: FlexStation II
Experiment materials: HEK293/CCR5-Gα16 cell line, Fluo-4calcium dye (fluorescent-4 calcium ion dye) and FlexStation instrument.
Experiment theory: Activation of the receptor can cause the activation of Gα16 protein, thereby activating phospholipase C (PLC) to generate IP3 and DAG by establishing CCR5 and Ga16 co-transfected cell line. IP3 can bind to IP3 receptors on the endoplasmic reticulum and mitochondria in a cell, which can cause the release of intracellular calcium. Thus, determination of changes in intracellular calcium can be used as a method to detect CCR5 activation state. Fluo-4/AM is a fluorescent probe indicator for calcium used to measure calcium ion. As a non-polar lipid-soluble compound, after it enters into cells, AM group is dissociated to release Fluo-4 under the effect of cell lipolysis enzyme. Fluo-4 is a polar molecule and not easy to go through the lipid bilayer membrane, therefore it can stay within the cells for a long time. Ultimately, the level of activated Ga protein can be reflected by measuring the excited fluorescence intensity. If the screened compound can activate CCR5, it can greatly increase the calcium flux reaction; on the contrary, if the screened compound can antagonize CCR5, it can greatly reduce calcium flux reaction.
1. HEK293 cells which can stably express CCR5 were inoculated in a 96-well plate and incubated overnight.
2. The medium in each well into which cells were innoculated was removed and 40 μl/well of freshly prepared dye was added. The plate was placed in a 37° C. incubator and incubated for 40 minutes at constant temperature.
3. The medicament to be determined was diluted with calcium buffer to eight concentration gradients, which is 1×10^−4 M, 1×10^−5 M, 1×10^−6 M, 1×10^−7 M, 1×10^−8 M, 1×10^−9 M, 1×10^−10 M, and 1×10^−11 M, respectively, and homogeneously mixed.
4. The dye was removed. Freshly prepared calcium buffer was used to wash for one time, 50 μl of calcium buffer was added.
5. FlexStation II was used for detection. 25 μl of calcium buffer containing the medicament to be determined was added automatically from the 15th second.

The mark [1] stands for this setting: HEK293/CCR5-Gα16 cell line, calcium flux, read-out: CCR5 IC50.

SMILES strings stand for the structures. Like-named read-outs stand apart in the source and are kept apart here.

Sequence of CCR5 (P51681 whole entry): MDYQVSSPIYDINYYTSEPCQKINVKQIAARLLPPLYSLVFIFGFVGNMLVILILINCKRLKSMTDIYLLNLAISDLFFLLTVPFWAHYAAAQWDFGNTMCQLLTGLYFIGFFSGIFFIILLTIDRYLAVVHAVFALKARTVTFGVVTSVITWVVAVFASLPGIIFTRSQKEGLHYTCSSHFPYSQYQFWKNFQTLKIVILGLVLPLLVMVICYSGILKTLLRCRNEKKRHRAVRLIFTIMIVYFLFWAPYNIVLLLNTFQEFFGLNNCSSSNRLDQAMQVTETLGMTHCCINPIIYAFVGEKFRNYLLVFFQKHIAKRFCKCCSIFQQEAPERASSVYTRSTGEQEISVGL

Consider `CCCC(=O)N1CCc2c(nc(C)n2C2CC3CCC(C2)N3CC[C@H](NC(C)=O)c2nccs2)C1` (stereo partly drawn) [Compound 123, N-{(1S)-3-[(3-endo)-3-(5-n-butyryl-2-methyl-4,5,6,7-tetrahydro-1H-imidazo[4,5-c]pyridin-1-yl)-8-azabicyclo[3.2.1]octane-8-yl]-1-(thiazol-2-yl)-propyl}acetamide], for which the “calcium influx inhibition effect in words, versus positive control compounds” value was “better than the positive control compounds”. Besides, the IC50 under setting [1] came to 12.1 nM.

For `CC(=O)N[C@@H](CCN1C2CCC1CC(n1c(C)nc3c1CCN(C(=O)C(C)C)C3)C2)c1cc(C)cs1` (stereo partly drawn) [Compound 145, N-{(1S)-3-[(3-endo)-3-(5-isobutyryl-2-methyl-4,5,6,7-tetrahydro-1H-imidazo[4,5-c]pyridin-1-yl)-8-azabicyclo[3.2.1]octane-8-yl]-1-(4-methylthiophen-2-yl)-propyl}acetamide], the IC50 under setting [1] was determined as 13.3 nM.

Regarding `CCC(=O)N[C@@H](CCN1C2CCC1CC(n1c(C)nc3c1CCN(C(C)=O)C3)C2)c1nccs1` (stereo partly drawn) [Compound 124, N-{(1S)-3-[(3-endo)-3-(5-acetyl-2-methyl-4,5,6,7-tetrahydro-1H-imidazo[4,5-c]pyridin-1-yl)-8-azabicyclo[3.2.1]octane-8-yl]-1-(thiazol-2-yl)-propyl}propanamide], the “calcium influx inhibition effect in words, versus positive control compounds” value is recorded as “better than the positive control compounds”. Also, under setting [1], the IC50 was 11.2 nM.

Turning to `CCc1ccc([C@H](CCN2C3CCC2CC(n2c(C)nnc2C(C)C)C3)NC(=O)C2CCCCC2)s1` (stereo partly drawn) [Compound 65, N-[(1S)-3-[exo-3-(3-isopropyl-5-methyl-4H-1,2,4-triazol-4-yl)-8-azabicyclo[3.2.1]octane-8-yl]-1-(5-ethylthiophen-2-yl)propyl]cyclohexane-1-carboxamide], the “calcium influx inhibition effect in words, versus positive control compounds” value was “better than the positive control compounds”. For the same molecule, the IC50 under setting [1] stood at 1.62 nM.

As to `CC(=O)Nc1ccc([C@H](CCN2C3CCC2CC(n2c(C)nnc2C(C)C)C3)NC(=O)C2CCCC2)s1` (stereo partly drawn) [Compound 139, N-[(1S)-3-[exo-3-(3-isopropyl-5-methyl-4H-1,2,4-triazol-4-yl)-8-azabicyclo[3.2.1]octane-8-yl]-1-(5-acetamidothiophen-2-yl)propyl]cyclopentane-1-carboxamide], the IC50 under setting [1] was determined as 12.3 nM.

As for `CCc1ccc([C@H](CCN2C3CCC2CC(n2c(C)nnc2C(C)C)C3)NC(=O)C2CCCC2)s1` (stereo partly drawn) [Compound 66], the “calcium influx inhibition effect in words, versus positive control compounds” value was “better than the positive control compounds”. Further, the IC50 under setting [1] worked out at 2.02 nM.

For the molecule `CC(=O)N[C@@H](CCN1C2CCC1CC(n1c(C)nc3c1CCN(C(=O)C(C)C)C3)C2)c1cccc(F)c1` (stereo partly drawn) [PF-232798, reference compound], the IC50 under setting [1] stood at 8.29 nM.

With `CC(=O)N[C@@H](CCN1C2CCC1CC(n1c(C)nc3c1CCN(C(=O)C(C)C)C3)C2)c1ccc(C#N)s1` (stereo partly drawn) [Compound 143, N-{(1S)-3-[(3-endo)-3-(5-isobutyryl-2-methyl-4,5,6,7-tetrahydro-1H-imidazo[4,5-c]pyridin-1-yl)-8-azabicyclo[3.2.1]octane-8-yl]-1-(5-cyanothiophen-2-yl)-propyl}acetamide], the IC50 under setting [1] was determined as 13.9 nM.

Turning to `COc1ccc([C@H](CCN2C3CCC2CC(n2c(C)nnc2C(C)C)C3)NC(=O)Cn2ncnn2)s1` (stereo partly drawn) [Compound 154], the IC50 came to 23.1 nM.

On to `Cc1nnc(C(C)C)n1C1CC2CCC(C1)N2CC[C@H](NC(=O)Cn1ncnn1)c1ccc(C#N)s1` (stereo partly drawn) [Compound 155, N-[(1S)-3-[exo-3-(3-isopropyl-5-methyl-4H-1,2,4-triazol-4-yl)-8-azabicyclo[3.2.1]octane-8-yl]-1-(5-cyanothiophen-2-yl)propyl]-2-(2H-tetrazol-2-yl)acetamide], for which the IC50 was found to be 8.23 nM and the “calcium influx inhibition effect in words, versus positive control compounds” value is given as “comparable to the positive control compounds”.

In the case of `COC(=O)c1ccc([C@H](CCN2C3CCC2CC(n2c(C)nnc2C(C)C)C3)NC(=O)C2CCC(F)(F)CC2)s1` (stereo partly drawn) [Compound 73, 4,4-difluoro-N-[(1S)-3-[exo-3-(3-isopropyl-5-methyl-4H-1,2,4-triazol-4-yl)-8-azabicyclo[3.2.1]octane-8-yl]-1-(5-methoxycarbonylthiophen-2-yl)propyl]cyclohexane-1-carboxamide], the IC50 came to 8.23 nM.

As to `COc1ccc([C@H](CCN2C3CCC2CC(n2c(C)nnc2C(C)C)C3)NC(=O)C2CCN(S(C)(=O)=O)CC2)s1` (stereo partly drawn) [Compound 148, N-[(1S)-3-[exo-3-(3-isopropyl-5-methyl-4H-1,2,4-triazol-4-yl)-8-azabicyclo[3.2.1]octane-8-yl]-1-(5-methoxythiophen-2-yl)propyl]-1-methylsulfonylpiperidine-4-carboxamide], the “calcium influx inhibition effect in words, versus positive control compounds” value is “better than the positive control compounds”. Also, the IC50 under setting [1] is 3.42 nM.

With `CC(=O)N1CCc2c(nc(C)n2C2CC3CCC(C2)N3CC[C@H](NC(=O)C2CCC(F)(F)CC2)c2ccsc2)C1` (stereo partly drawn) [Compound 42, 4,4-difluoro-N-{(1S)-1-(thiophen-3-yl)-3-[(3-endo)-3-(5-acetyl-2-methyl-4,5,6,7-tetrahydro-1H-imidazo[4,5-c]pyridin-1-yl)-8-azabicyclo[3.2.1]octane-8-yl]propyl}cyclohexane-1-carboxamide], under setting [1], the IC50 worked out at 15.9 nM.

In the case of `Cc1nnc(C(C)C)n1C1CC2CCC(C1)N2CC[C@H](NC(=O)Cc1nnn[nH]1)c1ccc(Cl)s1` (stereo partly drawn) [Compound 162, N-[(1S)-3-[exo-3-(3-isopropyl-5-methyl-4H-1,2,4-triazol-4-yl)-8-azabicyclo[3.2.1]octane-8-yl]-1-(5-chlorothiophen-2-yl)propyl]-2-(1H-tetrazol-5-yl)acetamide], the “calcium influx inhibition effect in words, versus positive control compounds” value is recorded as “better than the positive control compounds”. In addition, the IC50 under setting [1] was found to be 1.85 nM.

Take `Cc1nnc(C(C)C)n1C1CC2CCC(C1)N2CC[C@H](NC(=O)C1CCN(S(C)(=O)=O)CC1)c1cccs1` (stereo partly drawn) [Compound 146, N-[(1S)-3-[exo-3-(3-isopropyl-5-methyl-4H-1,2,4-triazol-4-yl)-8-azabicyclo[3.2.1]octane-8-yl]-1-(thiophen-2-yl)propyl]-1-methylsulfonylpiperidine-4-carboxamide]: the “calcium influx inhibition effect in words, versus positive control compounds” value is “better than the positive control compounds”. The IC50 under setting [1] was found to be 1.75 nM.

As to `CC(=O)Nc1ccc([C@H](CCN2C3CCC2CC(n2c(C)nnc2C(C)C)C3)NC(=O)C2CCCCC2)s1` (stereo partly drawn) [Compound 138, N-[(1S)-3-[exo-3-(3-isopropyl-5-methyl-4H-1,2,4-triazol-4-yl)-8-azabicyclo[3.2.1]octane-8-yl]-1-(5-acetamidothiophen-2-yl)propyl]cyclohexane-1-carboxamide], the “calcium influx inhibition effect in words, versus positive control compounds” value is reported as “comparable to the positive control compounds”. In addition, under setting [1], the IC50 was 9.75 nM.

With `COc1ccc([C@H](CCN2C3CCC2CC(n2c(C)nnc2C(C)C)C3)NC(=O)Cc2nnn[nH]2)s1` (stereo partly drawn) [Compound 160, N-[(1S)-3-[exo-3-(3-isopropyl-5-methyl-4H-1,2,4-triazol-4-yl)-8-azabicyclo[3.2.1]octane-8-yl]-1-(5-methoxythiophen-2-yl)propyl]-2-(1H-tetrazol-5-yl)acetamide], the IC50 came out at 1.34 nM and the “calcium influx inhibition effect in words, versus positive control compounds” value is “better than the positive control compounds”.

By IC50 is commonly meant the midpoint of a concentration-inhibition curve.
